Data taken from paper PMC4121272, “Two β-Galactosidases from the Human Isolate Bifidobacterium breve DSM 20213: Molecular Cloning and Expression, Biochemical Characterization and Synthesis of Galacto-Oligosaccharides” (PLoS ONE, 2014).

How the values were obtained:
β-gal II = molecular target: T1, β-gal II (Bifidobacterium breve, UniProt D4BR09); experiment: oNPG hydrolysis, o-nitrophenol release at […] nm, nonlinear regression; assay type: biochemical; conditions: competitive vs oNPG; 50 mM sodium phosphate pH 6.5, 30°C
T1 construct: gene BIFBRE_04539; full length, C-terminal His6 tag kept (pET-21a), E. coli T7 Express with GroEL/GroES, IMAC; calculated 116,594 Da; homodimer 211 kDa; GH2; N-terminus from primer MNTTDDQ, C-terminus before tag DVNLELI
T1 sequence (D4BR09 entry or part of it): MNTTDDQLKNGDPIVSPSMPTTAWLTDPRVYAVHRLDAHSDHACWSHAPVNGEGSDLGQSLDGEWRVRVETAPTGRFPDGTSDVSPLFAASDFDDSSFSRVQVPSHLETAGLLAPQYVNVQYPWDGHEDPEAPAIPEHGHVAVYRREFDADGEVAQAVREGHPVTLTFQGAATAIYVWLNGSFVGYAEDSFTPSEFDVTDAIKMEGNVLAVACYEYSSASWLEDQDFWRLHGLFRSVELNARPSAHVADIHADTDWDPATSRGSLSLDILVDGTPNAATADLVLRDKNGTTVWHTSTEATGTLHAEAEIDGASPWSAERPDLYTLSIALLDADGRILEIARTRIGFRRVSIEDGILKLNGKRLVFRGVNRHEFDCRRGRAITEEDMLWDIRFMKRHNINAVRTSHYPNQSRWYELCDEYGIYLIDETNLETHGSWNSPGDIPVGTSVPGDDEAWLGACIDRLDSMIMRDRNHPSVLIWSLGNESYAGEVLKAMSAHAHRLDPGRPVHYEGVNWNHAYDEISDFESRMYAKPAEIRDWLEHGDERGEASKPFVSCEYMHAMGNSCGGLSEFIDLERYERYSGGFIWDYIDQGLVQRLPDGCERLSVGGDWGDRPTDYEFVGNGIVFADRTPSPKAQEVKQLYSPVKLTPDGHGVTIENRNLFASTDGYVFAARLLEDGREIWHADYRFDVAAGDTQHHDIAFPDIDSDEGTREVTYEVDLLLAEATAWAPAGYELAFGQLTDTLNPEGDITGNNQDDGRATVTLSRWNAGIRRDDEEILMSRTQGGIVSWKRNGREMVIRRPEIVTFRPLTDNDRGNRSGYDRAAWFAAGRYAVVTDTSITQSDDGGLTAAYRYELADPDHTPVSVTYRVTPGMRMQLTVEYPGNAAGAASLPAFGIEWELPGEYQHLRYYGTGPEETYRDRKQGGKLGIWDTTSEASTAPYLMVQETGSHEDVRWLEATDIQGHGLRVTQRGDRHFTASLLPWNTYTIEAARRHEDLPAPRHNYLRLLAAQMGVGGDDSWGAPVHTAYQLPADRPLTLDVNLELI

β-gal I = molecular target: T2, β-gal I (Bifidobacterium breve, UniProt D4BLG2); experiment: as above; assay type: biochemical; conditions: competitive vs oNPG; 50 mM sodium phosphate pH 6.5, 30°C
T2 construct: gene BIFBRE_02894; full length, C-terminal His6 tag kept (pET-21a), E. coli T7 Express with GroEL/GroES, IMAC; calculated 116,127 Da; homodimer 220 kDa; GH2; N-terminus from primer MQGKAKT, C-terminus before tag DVTLELI
T2 sequence (D4BLG2 entry or part of it): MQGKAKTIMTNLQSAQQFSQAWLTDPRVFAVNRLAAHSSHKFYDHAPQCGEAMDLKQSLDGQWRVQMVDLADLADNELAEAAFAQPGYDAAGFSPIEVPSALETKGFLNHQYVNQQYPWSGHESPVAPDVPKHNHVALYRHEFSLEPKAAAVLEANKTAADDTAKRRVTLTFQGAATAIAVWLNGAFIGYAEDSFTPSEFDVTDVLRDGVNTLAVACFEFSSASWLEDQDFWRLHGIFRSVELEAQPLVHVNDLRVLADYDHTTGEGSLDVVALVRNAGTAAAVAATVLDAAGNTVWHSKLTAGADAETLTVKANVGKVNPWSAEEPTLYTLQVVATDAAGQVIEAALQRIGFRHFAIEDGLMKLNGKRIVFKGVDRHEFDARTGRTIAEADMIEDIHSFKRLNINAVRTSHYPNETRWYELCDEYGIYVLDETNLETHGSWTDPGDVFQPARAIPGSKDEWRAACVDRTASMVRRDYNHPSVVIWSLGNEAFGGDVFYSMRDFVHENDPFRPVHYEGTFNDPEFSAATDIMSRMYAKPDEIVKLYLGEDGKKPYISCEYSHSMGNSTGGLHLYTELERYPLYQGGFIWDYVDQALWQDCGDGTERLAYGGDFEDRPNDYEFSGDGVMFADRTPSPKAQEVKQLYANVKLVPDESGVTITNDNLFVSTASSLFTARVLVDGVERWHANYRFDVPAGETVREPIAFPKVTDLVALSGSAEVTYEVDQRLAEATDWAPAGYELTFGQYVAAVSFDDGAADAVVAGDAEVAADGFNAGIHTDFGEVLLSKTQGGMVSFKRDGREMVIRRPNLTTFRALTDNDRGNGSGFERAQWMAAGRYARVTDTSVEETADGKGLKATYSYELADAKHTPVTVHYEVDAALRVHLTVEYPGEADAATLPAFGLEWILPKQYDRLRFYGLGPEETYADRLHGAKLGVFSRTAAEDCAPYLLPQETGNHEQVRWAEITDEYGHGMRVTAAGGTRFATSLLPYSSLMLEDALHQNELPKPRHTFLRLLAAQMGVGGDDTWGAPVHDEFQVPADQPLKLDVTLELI

Row | Ki (β-gal II) | Ki (β-gal I) | SMILES
1 | 34 ± 5 mM | 15 ± 3 mM | OC[C@H]1OC(O)[C@H](O)[C@@H](O)[C@H]1O (stereo partly drawn) [D-galactose]
2 | 37 ± 4 mM | – | OC[C@H]1OC(O)[C@H](O)[C@@H](O)[C@@H]1O (stereo partly drawn) [D-glucose]
